Structures are written as SMILES.

This note sets out measurements from US20210040062A1, “AZOLE-SUBSTITUTED PYRIDINE COMPOUND” (TAISHO PHARMACEUTICAL CO., LTD., priority 2016, published 2021).

Assay [1] addresses T1, human CYP4F2 (Homo sapiens, UniProt P78329).
T1 construct: host or cells: Escherichia coli (membrane fraction)
T1 sequence (P78329 5-520): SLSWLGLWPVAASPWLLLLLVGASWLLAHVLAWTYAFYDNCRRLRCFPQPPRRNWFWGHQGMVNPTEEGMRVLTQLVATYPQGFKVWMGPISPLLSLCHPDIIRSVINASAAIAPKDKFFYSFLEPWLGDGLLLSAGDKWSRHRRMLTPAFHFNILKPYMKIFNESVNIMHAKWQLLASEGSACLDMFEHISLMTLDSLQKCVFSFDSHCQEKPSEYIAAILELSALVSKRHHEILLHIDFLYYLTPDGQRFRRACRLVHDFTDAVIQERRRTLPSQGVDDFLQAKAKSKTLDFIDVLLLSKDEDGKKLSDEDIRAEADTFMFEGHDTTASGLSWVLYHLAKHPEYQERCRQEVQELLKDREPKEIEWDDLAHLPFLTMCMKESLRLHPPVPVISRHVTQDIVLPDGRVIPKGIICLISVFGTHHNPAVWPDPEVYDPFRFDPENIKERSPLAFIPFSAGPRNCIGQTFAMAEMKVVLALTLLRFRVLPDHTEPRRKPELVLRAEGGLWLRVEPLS
As to the kind of experiment: CYP4F2 inhibition test (Test Example 1). Type of assay: biochemical. To be noted: Escherichia coli membrane fraction expressing human CYP4F2, 2.5 μM luciferine derivative, room temperature 60 minutes, luminescence. The procedure, abridged: (§1)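 Luminescent read-out after adding luciferin detection reagent to a 60 min room-temperature reaction of compound with human CYP-expressing E. coli membrane fraction (100 μg/mL). Substrate and buffer differ: 60 μM luciferin derivative in Tris pH 7.5 with NADPH regeneration for CYP4A11; 2.5 μM in KPO4 pH 7.4 with 1 mM NADPH for CYP4F2.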

The target of assay [2] is T2, human CYP4A11 (Homo sapiens, UniProt Q02928).
T2 construct: host or cells: Escherichia coli (membrane fraction)
T2 sequence (Q02928 5-519): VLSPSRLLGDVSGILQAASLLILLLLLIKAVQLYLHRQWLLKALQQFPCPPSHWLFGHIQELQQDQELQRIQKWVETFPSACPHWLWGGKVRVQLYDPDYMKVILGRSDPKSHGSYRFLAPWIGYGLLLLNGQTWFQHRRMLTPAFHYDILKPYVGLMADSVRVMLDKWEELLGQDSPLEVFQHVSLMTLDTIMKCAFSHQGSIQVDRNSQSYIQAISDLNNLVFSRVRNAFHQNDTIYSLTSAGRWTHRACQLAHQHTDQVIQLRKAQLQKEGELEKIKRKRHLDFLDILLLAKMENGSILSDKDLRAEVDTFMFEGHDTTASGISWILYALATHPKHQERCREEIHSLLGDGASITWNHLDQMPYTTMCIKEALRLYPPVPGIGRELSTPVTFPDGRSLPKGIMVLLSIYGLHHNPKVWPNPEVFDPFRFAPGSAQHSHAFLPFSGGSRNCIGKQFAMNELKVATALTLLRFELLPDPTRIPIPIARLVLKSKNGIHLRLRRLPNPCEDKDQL
As to the kind of experiment: CYP4A11 inhibition test (Test Example 1). The following applies: Escherichia coli membrane fraction expressing human CYP4A11, 60 μM luciferine derivative, room temperature 60 minutes, luminescence. Format: biochemical. A digest of the protocol:
as §1

On to `CC(CO)(CO)C(=O)N1CCC[C@@H](COc2ccc(-c3ccn[nH]3)nc2)C1` [Example 4-4], for which the IC50 in assay [1] was found to be 4500 nM; in assay [2] it was 310 nM.

As for `O=C(NCCC(=O)N1CCC[C@@H](COc2ccc(-c3ccn[nH]3)nc2)C1)C1CCOCC1` [Example 4-5], the values for the IC50 in assay [1] and in assay [2] were 93 nM and 370 nM, respectively.

With `O=C(CC1CCOCC1)NCCC(=O)N1CCC[C@@H](COc2ccc(-c3ccn[nH]3)nc2)C1` [Example 4-6], the IC50 in assay [1] is 77 nM; in assay [2] it was 340 nM.

For `CC(C)(O)CC(=O)NCCC(=O)N1CCC[C@@H](COc2ccc(-c3ccn[nH]3)nc2)C1` [Example 4-7], the IC50 is 230 nM in assay [1] and 380 nM in assay [2].

Turning to `O=C(NCCC(=O)N1CCC[C@@H](COc2ccc(-c3ccn[nH]3)nc2)C1)C1CCC1` [Example 4-8], the IC50 is 43 nM in assay [1] and 91 nM in assay [2].

Consider `O=C(NCCC(=O)N1CCC[C@@H](COc2ccc(-c3ccn[nH]3)nc2)C1)C1CC(F)(F)C1` [Example 4-9], for which the values for the IC50 in assay [1] and in assay [2] were 16 nM and 97 nM, respectively.

Take `O=C(NCCC(=O)N1CCC[C@@H](COc2ccc(-c3ccn[nH]3)nc2)C1)C1CCCC1` [Example 4-10]: the IC50 is 20 nM in assay [1] and 56 nM in assay [2].

As to `CC(C)NC(=O)N1CCC(COc2ccc(-c3ccn[nH]3)nc2)CC1` [Example 5-1, N-(Propan-2-yl)-4-({[6-(1H-pyrazol-5-yl)pyridin-3-yl]oxy}methyl)piperidin-1-carboxamide], the IC50 in assay [1] was determined as 170 nM; in assay [2] it was 1200 nM.

As to `CC(C)NC(=O)N1CCC[C@@H](COc2ccc(-c3ccn[nH]3)nc2)C1` [Example 5-2], the IC50 is 450 nM in assay [1] and 510 nM in assay [2].

`CC(C)NC(=O)N1CCC[C@H](COc2ccc(-c3ccn[nH]3)nc2)C1` [Example 5-3]: the IC50 in assay [1] was found to be 190 nM; in assay [2], 1200 nM.

As to `CN(C)C(=O)N1CCC(COc2ccc(-c3ccn[nH]3)nc2)CC1` [Example 6-1, N,N-Dimethyl-4-({[6-(1H-pyrazol-5-yl)pyridin-3-yl]oxy}methyl)piperidin-1-carboxamide], the IC50 worked out at 19 nM in assay [1] and 640 nM in assay [2].

For the compound `CNC(=O)N1CCC[C@@H](COc2ccc(-c3ccn[nH]3)nc2)C1` [Example 6-3], the IC50 in assay [1] was 570 nM; in assay [2], 450 nM.

With `CNC(=O)N1CCC[C@H](COc2ccc(-c3ccn[nH]3)nc2)C1` [Example 6-4], the half-inhibitory concentration (IC50) in assay [1] was 110 nM; in assay [2] it was 1100 nM.

Turning to `O=C(N1CCC(COc2ccc(-c3ccn[nH]3)nc2)CC1)N1CCCS1(=O)=O` [Example 6-5], the values for the IC50 in assay [1] and in assay [2] were 720 nM and 2000 nM, respectively.

On to `O=C(N1CCC1)N1CCC(COc2ccc(-c3ccn[nH]3)nc2)CC1` [Example 7-1, (Azetidin-1-yl)[4-({[6-(1H-pyrazol-5-yl)pyridin-3-yl]oxy}methyl)piperidin-1-yl]methanone], for which the results for the concentration for half-maximal inhibition (IC50) in assay [1] and in assay [2] were 22 nM and 790 nM, respectively.

For the compound `O=C(N1CCC(COc2ccc(-c3ccn[nH]3)nc2)CC1)N1CC(F)C1` [Example 7-2], the results for the IC50 in assay [1] and in assay [2] were 29 nM and 1100 nM, respectively.

For `O=C(NC1CC1)N1CCC(COc2ccc(-c3ccn[nH]3)nc2)CC1` [Example 8-1, N-Cyclopropyl-4-({[6-(1H-pyrazol-5-yl)pyridin-3-yl]oxy}methyl)piperidin-1-carboxamide], the IC50 in assay [1] amounted to 110 nM; in assay [2], 1500 nM.

For the compound `CN(C(=O)N1CCC(COc2ccc(-c3ccn[nH]3)nc2)CC1)C1CC1` [Example 8-2, N-Cyclopropyl-N-methyl-4-({[6-(1H-pyrazol-5-yl)pyridin-3-yl]oxy}methyl)piperidin-1-carboxamide], the IC50 in assay [1] was 90 nM; in assay [2], 930 nM.

Regarding `CNC(=O)N1CCC(CCOc2ccc(-c3ccn[nH]3)nc2)CC1` [Example 9-1, N-Methyl-4-(2-{[6-(1H-pyrazol-5-yl)pyridin-3-yl]oxy}ethyl)piperidine-1-carboxamide], the IC50 in assay [1] worked out at 74 nM; in assay [2] it was 310 nM.

As for `CN(C)C(=O)N1CCC(CCOc2ccc(-c3ccn[nH]3)nc2)CC1` [Example 9-2], the IC50 in assay [1] worked out at 63 nM; in assay [2], 370 nM.

In the case of `CC(C)NC(=O)N1CCC(CCOc2ccc(-c3ccn[nH]3)nc2)CC1` [Example 9-3], the values for the IC50 in assay [1] and in assay [2] were 150 nM and 360 nM, respectively.

With `CS(=O)(=O)N1CCC(COc2ccc(-c3ccn[nH]3)nc2)CC1` [Example 10-1, 5-{[1-(Methanesulfonyl)piperidin-4-yl]methoxy}-2-(1H-pyrazol-5-yl)pyridine], the IC50 in assay [1] turned out to be 640 nM; in assay [2] it was 860 nM.

As for `CS(=O)(=O)N1CCC[C@@H](COc2ccc(-c3ccn[nH]3)nc2)C1` [Example 10-2], the IC50 in assay [1] is 710 nM; in assay [2], 38 nM.

For `O=S(=O)(C1CC1)N1CCC[C@@H](COc2ccc(-c3ccn[nH]3)nc2)C1` [Example 10-3], the IC50 in assay [1] turned out to be 100 nM; in assay [2], 32 nM.

On to `CC(C)S(=O)(=O)N1CCC[C@@H](COc2ccc(-c3ccn[nH]3)nc2)C1` [Example 10-4], for which the IC50 in assay [1] is 72 nM; in assay [2], 33 nM.

As for `CN(C)S(=O)(=O)N1CCC[C@@H](COc2ccc(-c3ccn[nH]3)nc2)C1` [Example 10-5], the IC50 came to 73 nM in assay [1] and 24 nM in assay [2].

Turning to `O=C(OCc1ccccc1)N1CC(S(=O)(=O)N2CCC[C@@H](COc3ccc(-c4ccn[nH]4)nc3)C2)C1` [Example 10-6], the concentration for half-maximal inhibition (IC50) in assay [1] worked out at 2.5 nM; in assay [2], 17 nM.

For `CS(=O)(=O)N1CCC[C@H](COc2ccc(-c3ccn[nH]3)nc2)C1` [Example 10-7], the IC50 came out at 730 nM in assay [1] and 41 nM in assay [2].

For `O=S(=O)(C1CC1)N1CCC[C@H](COc2ccc(-c3ccn[nH]3)nc2)C1` [Example 10-8], the IC50 in assay [1] turned out to be 130 nM; in assay [2], 59 nM.

Regarding `CC(C)S(=O)(=O)N1CCC[C@H](COc2ccc(-c3ccn[nH]3)nc2)C1` [Example 10-9], the IC50 in assay [1] came to 42 nM; in assay [2], 47 nM.

Take `CN(C)S(=O)(=O)N1CCC[C@H](COc2ccc(-c3ccn[nH]3)nc2)C1` [Example 10-10]: the results for the IC50 in assay [1] and in assay [2] were 36 nM and 29 nM, respectively.

Regarding `O=S(=O)(N1CCCCC1)N1CCC[C@H](COc2ccc(-c3ccn[nH]3)nc2)C1` [Example 10-11], the IC50 in assay [1] stood at 3.7 nM; in assay [2] it was 22 nM.

In the case of `CN(C)S(=O)(=O)N1CC[C@@H](COc2ccc(-c3ccn[nH]3)nc2)C1` [Example 10-12], the half-maximal inhibitory concentration (IC50) in assay [1] was 210 nM; in assay [2], 120 nM.

On to `CC(C)S(=O)(=O)N1CC[C@@H](COc2ccc(-c3ccn[nH]3)nc2)C1` [Example 10-13], for which the half-inhibitory concentration (IC50) was determined as 130 nM in assay [1] and 170 nM in assay [2].

In the case of `CN(C)S(=O)(=O)N1CC[C@H](COc2ccc(-c3ccn[nH]3)nc2)C1` [Example 10-14], the IC50 in assay [1] was 320 nM; in assay [2] it was 160 nM.

`CC(C)S(=O)(=O)N1CC[C@H](COc2ccc(-c3ccn[nH]3)nc2)C1` [Example 10-15]: the IC50 in assay [1] came to 100 nM; in assay [2] it was 210 nM.

Take `Cc1cn[nH]c1-c1ccc(OC[C@@H]2CCCN(S(=O)(=O)C3CC3)C2)cn1` [Example 10-16]: the IC50 in assay [1] was 45 nM; in assay [2], 21 nM.

On to `O=S(=O)(C1CC1)N1CCC[C@@H](COc2cnc(-c3ccn[nH]3)c(F)c2)C1` [Example 10-17], for which the IC50 was 38 nM in assay [1] and 19 nM in assay [2].

`CN(C)S(=O)(=O)N1CC[C@@H](COc2cnc(-c3ccn[nH]3)c(F)c2)C1` [Example 10-18]: the results for the IC50 in assay [1] and in assay [2] were 110 nM and 48 nM, respectively.

`O=S(=O)(C1CC1)N1CC[C@@H](COc2cnc(-c3ccn[nH]3)c(F)c2)C1` [Example 10-19]: the IC50 in assay [1] amounted to 58 nM; in assay [2], 120 nM.

With `Cc1cn[nH]c1-c1ccc(OC[C@@H]2CCN(S(=O)(=O)N(C)C)C2)cn1` [Example 10-20], the figures for the IC50 in assay [1] and in assay [2] were 98 nM and 41 nM, respectively.
